Data set [1] addresses T1, CRD of human mincle (Homo sapiens, UniProt Q9ULY5).
T1 construct: made in house; host or cells: bacterial expression system (analogous to the bovine one)
T1 sequence (Q9ULY5 87-206 limits assumed): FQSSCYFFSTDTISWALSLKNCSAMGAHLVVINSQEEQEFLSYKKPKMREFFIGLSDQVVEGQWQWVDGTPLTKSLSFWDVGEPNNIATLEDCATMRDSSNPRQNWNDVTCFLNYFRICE
As to the kind of experiment: Competition binding assay with immobilized CRD of human mincle. Particulars: Fig. S1. On the procedure: (§1) A biotin-tagged version of the CRD from bovine mincle was prepared in a bacterial expression system as previously described.[8] An equivalent fragment of human mincle was generated using an analogous system.[9] Binding competition assays, based on inhibition of binding of radioiodinated Man31-bovine serum albumin to the biotin-tagged CRDs immobilized on streptavidin-coated plates, were performed as previously described.[8] Results are reported as average ± standard deviation for at least 3 independent experiments, each performed in duplicate.

The nature of data set [2]: Solubility in aqueous media. Format: physicochemical.
Data set [3] deals with T2, CRD from bovine mincle (Bos taurus, UniProt E1BHM0).
T2 construct: A biotin-tagged version of the CRD from bovine mincle was prepared in a bacterial expression system; made in house; host or cells: bacterial expression system
T2 sequence (E1BHM0 78-211 limits assumed): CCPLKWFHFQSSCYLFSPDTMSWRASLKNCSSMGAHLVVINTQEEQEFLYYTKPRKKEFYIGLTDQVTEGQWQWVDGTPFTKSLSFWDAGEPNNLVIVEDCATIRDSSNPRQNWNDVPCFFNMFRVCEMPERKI
As to the kind of experiment: Competition binding assay: inhibition of radioiodinated Man31-bovine serum albumin binding to immobilized biotin-tagged CRD. Particulars: for Ki: inhibition of mannose-conjugated serum albumin binding to bovine mincle CRD, average ± s.d. for three independent experiments; for Reduction in binding affinity compared to brartemicin / Rel. affinity (affinity relative to α,α-trehalose): bovine mincle CRD; for Rel. affinity (affinity relative to α,α-trehalose): α,α-trehalose = 1. How it is done: The collection of compounds was tested in competition binding experiments with immobilized bovine mincle CRD[8] (Fig. 3a).
Fig. 3 a) Data for inhibition of mannose-conjugated serum albumin binding to the CRD from bovine mincle by brartemicin and analogs. K I-values (average ± s.d. for three independent experiments) and affinities relative to α,α-trehalose. b) Top view and c) side view of highest scoring docking pose of brartemicin with bovine mincle. The Ca^2+ is coloured magenta. TEXT PRINTED IN THE PICTURE: (a) brartemicin: Ki (μM): 5.5 ± 0.9; Rel. affinity: 290 | (a) 2: Ki (μM): 5.4 ± 0.3; Rel. affinity: 300 | (a) 3: Ki (μM): 11.3 ± 0.9; Rel. affinity: 140 | (a) 4: Ki (μM): 164 ± 13; Rel. affinity: 9.8 | (a) epi-brartemicin: Ki (μM): 440 ± 70; Rel. affinity: 3.6 | (a) α,α-trehalose: Ki (μM): 1620 ± 70; Rel. affinity: 1
as §1

Data set [4] relates to cancer cells. Particulars: cited from earlier work.

Usually Ki stands for a dissociation constant, usually derived from enzyme kinetics or from competition with a known ligand. Read a low Ki as tighter binding. For `Cc1cc(O)cc(O)c1C(=O)OC[C@H]1O[C@H](O[C@H]2O[C@H](COC(=O)c3c(C)cc(O)cc3O)[C@@H](O)[C@H](O)[C@H]2O)[C@H](O)[C@@H](O)[C@@H]1O` [brartemicin, 6,6′-Bis-(2,4-dihydroxy-6-methylbenzoate)-α,α-trehalose], the “Binding to CRD of human mincle” value in data set [1] was “binds with high affinity”. In addition, in data set [2], the “Solubility in aqueous media” value was “soluble at millimolar concentrations”. Moreover, the inhibition constant (Ki) in data set [3] is 5.5 ± 0.9 µM. Besides, in data set [4], the “Block of matrigel-invasion of cancer cells” value is “block matrigel-invasion of cancer cells”.
As for `COc1cccc(C(=O)OC[C@H]2O[C@H](O[C@H]3O[C@H](COC(=O)c4cccc(OC)c4OC)[C@@H](O)[C@H](O)[C@H]3O)[C@H](O)[C@@H](O)[C@@H]2O)c1OC` [compound 2], in data set [3], the “Reduction in binding affinity compared to brartemicin” value (shortened to “Reduction in binding affinity”) is reported as “equipotent”, the “Rel. affinity (affinity relative to α,α-trehalose)” value is 300 fold and the Ki came to 5.4 ± 0.3 µM. Moreover, the “Anti-invasive activity on cancer cells” value in data set [4] is reported as “in the same range as brartemicin”.
For `O=C(OC[C@H]1O[C@H](O[C@H]2O[C@H](COC(=O)c3ccccc3)[C@@H](O)[C@H](O)[C@H]2O)[C@H](O)[C@@H](O)[C@@H]1O)c1ccccc1` [compound 3], in data set [3], the “Reduction in binding affinity” value is listed as “two-fold”, the “Rel. affinity (affinity relative to α,α-trehalose)” value is given as 140 fold and the Ki is 11.3 ± 0.9 µM. Besides, the “Anti-invasive activity on cancer cells” value in data set [4] is reported as “in the same range as brartemicin”.
`Cc1cc(O)cc(O)c1C(=O)OC[C@H]1O[C@H](O[C@H]2O[C@H](CO)[C@@H](O)[C@H](O)[C@H]2O)[C@H](O)[C@@H](O)[C@@H]1O` [compound 4]: in data set [3], the “Reduction in binding affinity” value is “roughly 30 fold”, the “Rel. affinity (affinity relative to α,α-trehalose)” value was 9.8 fold and the affinity corresponds to a Ki of 164 ± 13 µM.
Take `Cc1cc(O)cc(O)c1C(=O)OC[C@H]1O[C@@H](O[C@H]2O[C@H](COC(=O)c3c(C)cc(O)cc3O)[C@@H](O)[C@H](O)[C@H]2O)[C@H](O)[C@@H](O)[C@@H]1O` [epi-brartemicin, 6,6′-Bis-(2,4-dihydroxy-6-methylbenzoate)-α,β-trehalose]: in data set [3], the “Reduction in binding affinity” value is about 100 fold; the “Rel. affinity (affinity relative to α,α-trehalose)” value was determined as 3.6 fold; the affinity, expressed as Ki, was 440 ± 70 µM.
Consider `OC[C@H]1O[C@H](O[C@H]2O[C@H](CO)[C@@H](O)[C@H](O)[C@H]2O)[C@H](O)[C@@H](O)[C@@H]1O` [α,α-trehalose, reference compound], for which, in data set [3], the “Rel. affinity (affinity relative to α,α-trehalose)” value turned out to be 1 fold and the affinity, expressed as Ki, was 1620 ± 70 µM.

Source of the values: publication PMC4393326, “The natural product brartemicin is a high affinity ligand for the carbohydrate-recognition domain of the macrophage receptor mincle” (Medchemcomm, 2015).
